Results from patent EP0377489A2, “Purified C5a receptor from human polymorphonuclear leukocytes” (MERCK & CO. INC., priority 1989, dated 1990).

Columns and labels:
solubilized C5a receptor = test: Inhibition of C5a binding to solubilized or purified receptor by nucleotides; set-up: species or system human
Protocol: -All assays, except where noted, were performed at 4°C, with freshly thawed membranes or freshly prepared soluble receptor. To assay intact membranes, assay buffer (50 mM HEPES, pH 7.2, containing 1 mM CaCl₂, 5 mM MgCl₂, 0.1 mM PMSF, 0.1% bacitracin, and 0.5% bovine serum albumin), ¹²⁵I-C5a (typically 0.1 ng), and membrane (typically 0.5 µg) were added sequentially to a final volume of 200 µl. After incubation for 60-90 minutes 2 ml of assay buffer was added, the solution mixed, and the sample filtered through either a Whatman® GF/C filter treated with 0.33% polyethyleneimine or an untreated Millipore®GVWP filter. […] The filters were then counted in a Packard 460 γ-counter. Nonspecific backgrounds were determined by including 20 ng or more of unlabled C5a in the incubation mixture. To assay soluble receptor, assay buffer, solubilized membrane (typically 5 µl) and ¹²⁵I-C5a were mixed to a final volume of 200 µl and incubated for 15-30 minutes, at which time 500 µl of 0.1% bovine γ-globulin and 500 µl of 30% polyethylene glycol were added sequentially with vigorous mixing. After an additional 5 minutes, the sample was filtered and washed with 2 ml of a 9% PEG solution. (Precipitation is essentially complete in less than one minute and the precipitated receptor-­ligand complex is stable for more than 30 minutes.)
As shown in Figure 5 membranes were solubilized in digitonin and assayed for binding activity in the presence of increasing amounts of GTPγS.

[1] = test system: C5a receptor from PMN membranes; test: Release of binding sites from the membrane: total binding activity of detergent extracts at saturation compared with intact membrane; set-up: species or system human
Protocol: In additional experiments (results not shown) the ability of digitonin and β-dodecyl maltoside to release binding sites from the membrane was determined by comparing the total binding activity of the extracts, at saturation, with that of an equivalent amount of intact membrane. In the two experiments in which a direct comparison was made the efficiencies of the detergents appeared to be similar, both solubilized 30-35% of the receptors initially present in the membrane. However, over the course of the work we did observe variability from experiment to experiment and it is our impression that, on average, digitonin was more efficient than β-dodecyl maltoside (for an example, see Table I).

| receptors initially present in the membrane solubilized [1] | SMILES | maximum inhibition of C5a binding (solubilized C5a receptor; digitonin solubilized membranes) [%] | IC50 (solubilized C5a receptor; inhibition of C5a binding, digitonin solubilized membranes, read-out: IC₅₀) [nM] | inhibition of binding of C5a to the purified receptor (solubilized C5a receptor; purified receptor, 3 different preparations) |
| --- | --- | --- | --- | --- |
| – | Nc1nc2c(ncn2[C@@H]2O[C@H](COP(=O)(O)OP(=O)(O)OP(O)(O)=S)[C@@H](O)[C@H]2O)c(=O)[nH]1 [GTPγS] | 85 | 10 | 27-50% |
| 30-35% | CCCCCCCCCCCCO[C@@H]1O[C@H](CO)[C@@H](O[C@H]2O[C@H](CO)[C@@H](O)[C@H](O)[C@H]2O)[C@H](O)[C@H]1O [β-Dodecyl maltoside] | – | – | – |
